In ChEMBL document CHEMBL4507319 (2021):

Legend:
[1] = molecular target: Ribosomal protein S6 kinase alpha-2 (Homo sapiens, UniProt Q15349); conditions: Compound concentration 1000.0 nM
[2] = molecular target: 5-hydroxytryptamine receptor 1B (Homo sapiens) (UniProt P28222); conditions: Compound concentration 10.0 uM
[3] = molecular target: T1, Serine/threonine-protein kinase Nek11 (Homo sapiens) (UniProt Q8NG66); conditions: Compound concentration 1000.0 nM
T1 sequence (whole entry): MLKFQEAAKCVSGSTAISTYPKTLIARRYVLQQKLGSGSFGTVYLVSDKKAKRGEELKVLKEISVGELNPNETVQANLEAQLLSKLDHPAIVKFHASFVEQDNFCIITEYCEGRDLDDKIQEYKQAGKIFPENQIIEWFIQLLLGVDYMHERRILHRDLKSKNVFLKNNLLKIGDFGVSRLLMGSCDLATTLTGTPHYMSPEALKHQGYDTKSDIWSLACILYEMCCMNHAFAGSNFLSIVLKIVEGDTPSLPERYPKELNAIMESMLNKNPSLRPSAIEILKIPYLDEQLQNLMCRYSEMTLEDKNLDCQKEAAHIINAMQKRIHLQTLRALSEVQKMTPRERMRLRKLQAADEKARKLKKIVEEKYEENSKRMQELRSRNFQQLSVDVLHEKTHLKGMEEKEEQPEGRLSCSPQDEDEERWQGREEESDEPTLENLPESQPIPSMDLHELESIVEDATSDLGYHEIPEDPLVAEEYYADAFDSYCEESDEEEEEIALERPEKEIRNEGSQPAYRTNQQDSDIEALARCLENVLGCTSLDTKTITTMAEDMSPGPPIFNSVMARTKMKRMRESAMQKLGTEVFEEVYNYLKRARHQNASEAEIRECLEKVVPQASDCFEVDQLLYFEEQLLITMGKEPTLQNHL

[4] = molecular target: Hormonally up-regulated neu tumor-associated kinase (Homo sapiens) (UniProt P57058); conditions: Compound concentration 1000.0 nM
Chain of Hormonally up-regulated neu tumor-associated kinase (Homo sapiens) (P57058 whole entry): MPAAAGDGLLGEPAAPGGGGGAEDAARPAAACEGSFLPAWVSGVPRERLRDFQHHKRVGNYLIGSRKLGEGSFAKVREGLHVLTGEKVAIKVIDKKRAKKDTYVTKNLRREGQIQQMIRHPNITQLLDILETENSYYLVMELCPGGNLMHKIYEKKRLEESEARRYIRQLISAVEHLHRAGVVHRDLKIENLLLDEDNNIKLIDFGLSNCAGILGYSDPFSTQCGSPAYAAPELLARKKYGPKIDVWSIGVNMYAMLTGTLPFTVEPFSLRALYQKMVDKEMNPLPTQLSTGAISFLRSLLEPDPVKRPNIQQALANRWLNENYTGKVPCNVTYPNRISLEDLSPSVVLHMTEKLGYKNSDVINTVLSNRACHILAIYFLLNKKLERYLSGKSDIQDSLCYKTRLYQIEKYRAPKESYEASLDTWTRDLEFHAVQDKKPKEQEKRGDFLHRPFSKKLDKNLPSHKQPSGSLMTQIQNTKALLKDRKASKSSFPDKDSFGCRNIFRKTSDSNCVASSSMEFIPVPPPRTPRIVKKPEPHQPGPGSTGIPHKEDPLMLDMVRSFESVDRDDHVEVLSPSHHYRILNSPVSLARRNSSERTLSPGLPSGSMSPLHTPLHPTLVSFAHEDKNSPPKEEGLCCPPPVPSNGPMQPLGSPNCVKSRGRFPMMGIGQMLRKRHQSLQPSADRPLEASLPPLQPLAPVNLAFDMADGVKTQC

[5] = molecular target: T2, Serine/threonine-protein kinase TAO2 (Homo sapiens) (UniProt Q9UL54); conditions: Compound concentration 1000.0 nM
T2 sequence (whole entry): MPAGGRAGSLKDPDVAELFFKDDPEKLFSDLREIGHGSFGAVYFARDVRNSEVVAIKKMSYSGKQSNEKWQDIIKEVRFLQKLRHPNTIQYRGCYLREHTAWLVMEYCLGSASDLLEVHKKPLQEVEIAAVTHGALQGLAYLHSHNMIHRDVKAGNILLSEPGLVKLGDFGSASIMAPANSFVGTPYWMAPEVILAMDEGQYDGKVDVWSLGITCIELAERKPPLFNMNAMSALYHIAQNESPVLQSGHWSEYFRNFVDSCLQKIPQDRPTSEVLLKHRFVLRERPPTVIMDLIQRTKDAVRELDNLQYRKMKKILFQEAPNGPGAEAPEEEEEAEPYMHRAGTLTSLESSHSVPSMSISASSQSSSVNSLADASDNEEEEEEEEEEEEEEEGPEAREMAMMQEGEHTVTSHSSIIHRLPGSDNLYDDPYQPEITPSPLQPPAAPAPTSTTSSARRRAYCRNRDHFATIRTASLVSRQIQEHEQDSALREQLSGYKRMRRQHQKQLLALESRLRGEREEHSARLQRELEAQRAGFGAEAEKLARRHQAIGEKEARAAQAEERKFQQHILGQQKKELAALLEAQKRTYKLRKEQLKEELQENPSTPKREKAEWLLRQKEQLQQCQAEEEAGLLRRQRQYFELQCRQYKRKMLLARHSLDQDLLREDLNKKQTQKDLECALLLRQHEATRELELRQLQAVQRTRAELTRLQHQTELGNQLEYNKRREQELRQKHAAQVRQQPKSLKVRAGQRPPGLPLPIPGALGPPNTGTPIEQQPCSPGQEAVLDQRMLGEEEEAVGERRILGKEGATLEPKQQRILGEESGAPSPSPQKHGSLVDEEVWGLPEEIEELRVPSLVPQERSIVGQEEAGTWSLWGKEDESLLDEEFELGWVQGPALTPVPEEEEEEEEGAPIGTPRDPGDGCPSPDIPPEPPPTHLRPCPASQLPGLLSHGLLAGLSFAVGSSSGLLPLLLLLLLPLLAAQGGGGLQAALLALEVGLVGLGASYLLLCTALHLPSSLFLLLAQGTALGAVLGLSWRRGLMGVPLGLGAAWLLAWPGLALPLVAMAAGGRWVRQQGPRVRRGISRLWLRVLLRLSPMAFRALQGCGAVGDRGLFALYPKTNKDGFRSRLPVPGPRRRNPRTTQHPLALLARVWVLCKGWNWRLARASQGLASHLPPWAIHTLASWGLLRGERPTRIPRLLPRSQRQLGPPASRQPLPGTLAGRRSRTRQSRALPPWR

[6] = molecular target: Calcium/calmodulin-dependent protein kinase type II subunit delta (Homo sapiens) (UniProt Q13557); conditions: Compound concentration 1000.0 nM
[7] = molecular target: Phosphatidylinositol 4-phosphate 5-kinase type-1 alpha (Homo sapiens) (UniProt Q99755); conditions: Compound concentration 1000.0 nM
[8] = tested on: Mast/stem cell growth factor receptor Kit (Homo sapiens), P10721 [V559D,V654A]; conditions: Compound concentration 1000.0 nM
Chain of Mast/stem cell growth factor receptor Kit (Homo sapiens), P10721 [V559D,V654A] (P10721 whole entry V559D/V654A): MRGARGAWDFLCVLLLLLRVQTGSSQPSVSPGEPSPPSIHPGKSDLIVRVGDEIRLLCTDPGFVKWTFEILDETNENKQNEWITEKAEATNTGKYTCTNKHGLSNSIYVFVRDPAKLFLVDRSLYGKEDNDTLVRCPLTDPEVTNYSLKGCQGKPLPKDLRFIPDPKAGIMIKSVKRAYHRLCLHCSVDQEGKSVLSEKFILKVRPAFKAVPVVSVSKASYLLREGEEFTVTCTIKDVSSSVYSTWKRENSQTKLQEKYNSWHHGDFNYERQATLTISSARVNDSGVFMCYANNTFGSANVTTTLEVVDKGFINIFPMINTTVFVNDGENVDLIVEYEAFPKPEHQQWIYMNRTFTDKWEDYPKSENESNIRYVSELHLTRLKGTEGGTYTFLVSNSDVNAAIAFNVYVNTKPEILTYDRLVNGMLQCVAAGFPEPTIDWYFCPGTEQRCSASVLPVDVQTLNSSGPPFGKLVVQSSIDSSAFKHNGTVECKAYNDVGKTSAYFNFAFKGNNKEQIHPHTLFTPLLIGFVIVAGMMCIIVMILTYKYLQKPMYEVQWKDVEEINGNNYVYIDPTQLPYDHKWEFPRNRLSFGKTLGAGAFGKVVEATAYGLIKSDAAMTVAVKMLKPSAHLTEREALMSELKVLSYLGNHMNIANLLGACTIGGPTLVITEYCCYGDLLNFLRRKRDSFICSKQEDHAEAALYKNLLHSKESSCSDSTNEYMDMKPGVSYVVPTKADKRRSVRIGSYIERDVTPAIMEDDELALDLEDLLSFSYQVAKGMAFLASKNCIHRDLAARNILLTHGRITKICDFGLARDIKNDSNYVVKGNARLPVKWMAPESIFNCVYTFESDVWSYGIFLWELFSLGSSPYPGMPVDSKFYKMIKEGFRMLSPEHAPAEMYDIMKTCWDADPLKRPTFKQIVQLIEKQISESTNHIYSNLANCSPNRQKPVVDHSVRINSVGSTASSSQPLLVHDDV

[9] = molecular target: 5-hydroxytryptamine receptor 1D (Homo sapiens) (UniProt P28221); conditions: Compound concentration 10.0 uM
[10] = molecular target: Receptor tyrosine-protein kinase erbB-4 (Homo sapiens) (UniProt Q15303); conditions: Compound concentration 1000.0 nM
Chain of Receptor tyrosine-protein kinase erbB-4 (Homo sapiens) (Q15303 whole entry): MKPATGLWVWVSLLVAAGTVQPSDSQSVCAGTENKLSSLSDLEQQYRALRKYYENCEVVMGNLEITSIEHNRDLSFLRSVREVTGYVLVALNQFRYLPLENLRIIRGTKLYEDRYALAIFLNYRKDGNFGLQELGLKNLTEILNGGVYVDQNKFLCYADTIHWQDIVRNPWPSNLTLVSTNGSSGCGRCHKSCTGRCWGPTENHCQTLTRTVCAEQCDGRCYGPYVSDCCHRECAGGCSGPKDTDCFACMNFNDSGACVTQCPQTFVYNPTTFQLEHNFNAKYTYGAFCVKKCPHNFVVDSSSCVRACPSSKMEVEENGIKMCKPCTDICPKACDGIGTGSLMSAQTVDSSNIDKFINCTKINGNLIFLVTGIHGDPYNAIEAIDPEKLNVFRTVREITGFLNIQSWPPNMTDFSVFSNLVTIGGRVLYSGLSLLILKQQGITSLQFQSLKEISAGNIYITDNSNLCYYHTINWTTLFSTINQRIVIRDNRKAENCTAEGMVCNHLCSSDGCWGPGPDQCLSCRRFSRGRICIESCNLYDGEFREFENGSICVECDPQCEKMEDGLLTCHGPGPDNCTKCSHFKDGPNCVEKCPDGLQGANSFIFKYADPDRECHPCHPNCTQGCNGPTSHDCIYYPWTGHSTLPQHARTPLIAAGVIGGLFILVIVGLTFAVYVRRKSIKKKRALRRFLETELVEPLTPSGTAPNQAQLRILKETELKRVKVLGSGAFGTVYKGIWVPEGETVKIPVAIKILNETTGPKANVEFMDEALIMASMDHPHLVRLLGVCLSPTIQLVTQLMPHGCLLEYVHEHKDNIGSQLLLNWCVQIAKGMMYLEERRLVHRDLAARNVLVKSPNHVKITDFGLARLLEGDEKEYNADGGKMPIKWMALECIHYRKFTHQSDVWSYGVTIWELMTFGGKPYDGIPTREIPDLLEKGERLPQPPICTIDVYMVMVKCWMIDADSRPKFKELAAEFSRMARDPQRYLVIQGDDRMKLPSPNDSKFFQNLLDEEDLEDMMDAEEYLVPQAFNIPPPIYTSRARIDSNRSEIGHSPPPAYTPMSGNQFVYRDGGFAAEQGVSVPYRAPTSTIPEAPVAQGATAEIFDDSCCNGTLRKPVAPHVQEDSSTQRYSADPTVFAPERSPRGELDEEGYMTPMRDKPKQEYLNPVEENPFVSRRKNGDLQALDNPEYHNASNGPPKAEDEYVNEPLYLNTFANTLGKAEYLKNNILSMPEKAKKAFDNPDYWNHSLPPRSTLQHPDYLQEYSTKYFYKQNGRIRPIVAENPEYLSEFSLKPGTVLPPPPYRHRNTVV

[11] = tested on: Fibroblast growth factor receptor 3 (Homo sapiens), P22607 [G697C]; conditions: Compound concentration 1000.0 nM
[12] = molecular target: Calcium/calmodulin-dependent protein kinase type 1D (Homo sapiens) (UniProt Q8IU85); conditions: Compound concentration 1000.0 nM
Chain of Calcium/calmodulin-dependent protein kinase type 1D (Homo sapiens) (Q8IU85 whole entry, looked up): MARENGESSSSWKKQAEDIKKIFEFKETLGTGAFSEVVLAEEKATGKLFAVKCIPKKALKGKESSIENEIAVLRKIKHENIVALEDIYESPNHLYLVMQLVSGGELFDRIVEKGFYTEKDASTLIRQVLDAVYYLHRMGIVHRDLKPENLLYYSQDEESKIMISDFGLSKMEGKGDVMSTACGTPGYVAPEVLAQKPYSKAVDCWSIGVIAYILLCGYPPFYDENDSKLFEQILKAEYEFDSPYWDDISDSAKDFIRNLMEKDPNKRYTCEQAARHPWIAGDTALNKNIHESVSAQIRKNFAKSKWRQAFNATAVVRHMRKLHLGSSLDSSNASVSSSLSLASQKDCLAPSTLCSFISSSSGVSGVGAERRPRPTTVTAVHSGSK

[13] = molecular target: Non-receptor tyrosine-protein kinase TNK1 (Homo sapiens) (UniProt Q13470); conditions: Compound concentration 1000.0 nM
[14] = molecular target: Activated CDC42 kinase 1 (Homo sapiens) (UniProt Q07912); conditions: Compound concentration 1000.0 nM
[15] = molecular target: Aurora kinase B (Homo sapiens) (UniProt Q96GD4); conditions: Compound concentration 1000.0 nM
[16] = molecular target: Tyrosine-protein kinase HCK (Homo sapiens) (UniProt P08631); conditions: Compound concentration 1000.0 nM
[17] = molecular target: STE20/SPS1-related proline-alanine-rich protein kinase (Homo sapiens) (UniProt Q9UEW8); conditions: Compound concentration 1000.0 nM
[18] = molecular target: Serine/threonine-protein kinase 24 (Homo sapiens, UniProt Q9Y6E0); conditions: Compound concentration 1000.0 nM
Chain of Serine/threonine-protein kinase 24 (Q9Y6E0 whole entry, looked up): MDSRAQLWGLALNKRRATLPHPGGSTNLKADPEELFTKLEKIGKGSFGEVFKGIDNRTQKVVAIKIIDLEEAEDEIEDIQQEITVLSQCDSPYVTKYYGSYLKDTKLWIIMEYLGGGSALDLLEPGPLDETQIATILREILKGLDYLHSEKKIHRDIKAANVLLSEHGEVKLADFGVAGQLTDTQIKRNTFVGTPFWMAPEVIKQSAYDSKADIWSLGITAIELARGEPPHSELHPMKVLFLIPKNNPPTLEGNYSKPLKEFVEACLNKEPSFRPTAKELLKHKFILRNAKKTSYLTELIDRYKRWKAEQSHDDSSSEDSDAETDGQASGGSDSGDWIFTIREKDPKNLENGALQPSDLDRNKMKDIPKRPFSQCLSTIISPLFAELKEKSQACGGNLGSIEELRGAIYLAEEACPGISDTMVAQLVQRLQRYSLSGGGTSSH

Chain of 5-hydroxytryptamine receptor 1B (Homo sapiens) (P28222 whole entry): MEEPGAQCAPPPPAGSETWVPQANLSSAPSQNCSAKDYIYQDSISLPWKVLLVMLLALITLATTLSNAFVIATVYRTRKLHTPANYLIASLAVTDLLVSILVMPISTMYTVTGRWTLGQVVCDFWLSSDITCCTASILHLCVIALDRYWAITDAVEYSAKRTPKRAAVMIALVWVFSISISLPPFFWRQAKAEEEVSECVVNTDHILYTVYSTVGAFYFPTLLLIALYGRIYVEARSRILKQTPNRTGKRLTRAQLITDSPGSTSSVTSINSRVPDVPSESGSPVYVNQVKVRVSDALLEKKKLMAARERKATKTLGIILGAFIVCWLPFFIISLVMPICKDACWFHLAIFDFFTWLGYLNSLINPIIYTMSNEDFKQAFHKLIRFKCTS
Chain of Ribosomal protein S6 kinase alpha-2 (Q15349 whole entry): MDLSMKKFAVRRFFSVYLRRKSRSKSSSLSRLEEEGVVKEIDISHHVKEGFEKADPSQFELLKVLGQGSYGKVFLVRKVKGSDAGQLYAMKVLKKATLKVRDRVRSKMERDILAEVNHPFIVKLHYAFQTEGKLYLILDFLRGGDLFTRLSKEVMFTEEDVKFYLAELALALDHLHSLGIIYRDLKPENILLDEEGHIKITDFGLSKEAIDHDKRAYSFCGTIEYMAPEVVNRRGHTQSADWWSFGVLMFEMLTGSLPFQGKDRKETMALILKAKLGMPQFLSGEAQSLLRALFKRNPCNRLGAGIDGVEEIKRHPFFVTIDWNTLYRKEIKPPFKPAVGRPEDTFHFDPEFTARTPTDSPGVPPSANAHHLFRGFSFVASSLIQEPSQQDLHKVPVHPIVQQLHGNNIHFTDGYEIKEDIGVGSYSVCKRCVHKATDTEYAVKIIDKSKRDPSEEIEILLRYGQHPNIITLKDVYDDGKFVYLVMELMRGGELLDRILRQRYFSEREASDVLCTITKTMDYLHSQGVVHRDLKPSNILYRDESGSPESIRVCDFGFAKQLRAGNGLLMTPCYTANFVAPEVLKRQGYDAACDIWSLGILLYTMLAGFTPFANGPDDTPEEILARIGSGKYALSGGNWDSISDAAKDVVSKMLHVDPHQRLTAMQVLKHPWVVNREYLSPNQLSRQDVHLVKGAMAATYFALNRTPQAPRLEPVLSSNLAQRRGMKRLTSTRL

| Compound | residual activity [1] | inhibition [2] | residual activity [3] | residual activity [4] | residual activity [5] | residual activity [6] | residual activity [7] | residual activity [8] | inhibition [9] | residual activity [10] | residual activity [11] | residual activity [12] | residual activity [13] | residual activity [14] | residual activity [15] | residual activity [16] | residual activity [17] | residual activity [18] |
| --- | --- | --- | --- | --- | --- | --- | --- | --- | --- | --- | --- | --- | --- | --- | --- | --- | --- | --- |
| CCc1ccccc1C(=O)Nc1n[nH]c2c(C)c(F)c(C3C(C#N)=C(C)N(C)C(C)=C3C#N)cc12 [BAY-3827] | 0% | 9.48% | 100% | 100% | 96% | 78% | 100% | 100% | 4.65% | 84% | 74% | 87% | 100% | 81% | 88% | 100% | 100% | 90% |
| CC1=C(C#N)C(c2ccc3c(c2)c(NC(=O)c2ccccc2C)nn3C)C(C#N)=C(C)N1 [BAY-974] | 83% | 4.12% | 96% | 78% | 70% | 100% | 100% | 99% | 2.45% | 65% | 93% | 93% | 76% | 86% | 66% | 66% | 92% | 100% |
